From paper PMC5374710, “Discovery of the first dual GSK3β inhibitor/Nrf2 inducer. A new multitarget therapeutic strategy for Alzheimer’s disease” (Scientific Reports, 2017) come the findings set out here.

Molecules are shown by their SMILES.

This assay deals with HO-1. Description: HO-1 expression in AREc32 cells after scramble or GSK3β siRNA (western blot). Type of assay: cell-based, human. As to conditions: 10 μM, 24 h. On the procedure: To further evaluate the potential relationship between GSK3β inhibition and the Nrf2 induction properties we used two different approaches. […] Cells were treated with compound 5m at increasing concentrations alone or in presence of Li (10 mM) during 24 h and thereafter, luciferase activity was evaluated. […] Secondly, to corroborate the independence of the Nrf2 induction properties of our derivatives from their GSK3β inhibitory properties, we used GSK3β knock down experimental conditions using siRNA. […] After knockdown of GSK3β, AREc32 cells were incubated with compound 5m (10 μM) during 24 h (Fig. 4B). Subsequently, luciferase activity and HO-1 expression were analyzed. […] Similar results were obtained when HO-1 expression was analyzed (Fig. 4D), compound 5m increased HO-1 expression 3.9 times after scramble treatment and 3.5 times after knockdown of GSK3β showing no statistical differences between both conditions. […]
Figure 4 Nrf2 induction properties are independent of the GSK3β inhibitory activity. […] (D) HO-1 expression induced by compound 5m (10 μM) measured at the same experimental conditions used previously. Values are expressed as mean ± SEM of three independent experiments in duplicate. ^###p < 0.001; ^##p < 0.01; ^#p < 0.05 compared to the correspondent basal conditions. […]
Background: A western blot detects proteins with antibodies after separation by electrophoresis.

With `Cc1[nH]nc2c1C(c1ccc(Br)cc1)C(C#N)=C(N)O2` (centres unmarked) [Compound 5m, 6-Amino-4-(4-bromophenyl)-3-methyl-2,4-dihydropyrano[2,3-c]pyrazole-5-carbonitrile], the HO-1 expression increase reads like this: (after knockdown of GSK3β) 3.5 times; (after scramble treatment) 3.9 times.
